For 40 compounds, IC50 results are on record in patent US8338465B2, “Cyclic carboxylic acid rhodanine derivatives for the treatment and prevention of tuberculosis” (priority 2006, dated 2012).

This assay addresses T1, dihydrolipoamide acyltransferase (DlaT) (Mycobacterium tuberculosis, UniProt P9WIS7).
T1 sequence (P9WIS7 1-553): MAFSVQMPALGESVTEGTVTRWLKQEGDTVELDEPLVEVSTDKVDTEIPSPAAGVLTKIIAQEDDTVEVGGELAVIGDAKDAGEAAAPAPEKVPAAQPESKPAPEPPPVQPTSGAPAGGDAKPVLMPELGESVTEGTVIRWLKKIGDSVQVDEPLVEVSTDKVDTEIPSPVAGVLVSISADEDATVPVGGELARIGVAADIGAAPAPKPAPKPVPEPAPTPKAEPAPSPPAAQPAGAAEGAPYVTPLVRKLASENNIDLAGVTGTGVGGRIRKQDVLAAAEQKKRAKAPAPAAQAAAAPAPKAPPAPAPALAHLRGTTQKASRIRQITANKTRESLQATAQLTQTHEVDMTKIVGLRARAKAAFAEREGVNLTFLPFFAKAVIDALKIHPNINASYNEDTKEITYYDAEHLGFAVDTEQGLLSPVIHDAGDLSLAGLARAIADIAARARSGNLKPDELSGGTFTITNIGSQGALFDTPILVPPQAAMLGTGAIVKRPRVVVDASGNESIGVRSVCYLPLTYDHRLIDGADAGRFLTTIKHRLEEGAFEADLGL
Kind of assay: DlaT inhibition (Dlat IC50); DTNB peroxidase assay with Lpd, DlaT and AhpD. Conditions: Dlat IC50 category. In kind it is biochemical.
As a reminder, the IC50 is the concentration needed to halve the response being measured. For `O=C(O)CN1C(=O)C(=Cc2ccc(-c3cccc(Cl)c3Cl)o2)SC1=S` [Compound B85], the IC50 was below 10 µM.

`CN(C)c1ccc(-c2ccc(C=C3SC(=S)N(CC(=O)O)C3=O)o2)cc1` [Compound B86] registered an IC50 of 41 to 80 µM.

Consider `Cc1ccccc1-c1ccc(C=C2SC(=S)N(CC(=O)O)C2=O)o1` [Compound B87], for which the IC50 was 41 to 80 µM.

In turn, `COc1ccccc1-c1ccc(C=C2SC(=S)N(CC(=O)O)C2=O)o1` [Compound B88] gave an IC50 of 11 to 40 µM.

The compound `N#Cc1c(F)cccc1-c1ccc(C=C2SC(=S)N(C(C(=O)O)c3ccccc3)C2=O)o1` (stereo not shown) [Compound B89] came in with an IC50 of 11 to 40 µM.

In the case of `O=C(O)CCCN1C(=O)C(=Cc2ccc(-c3ccccc3Cl)o2)SC1=S` [Compound B90], the IC50 was below 10 µM.

The compound `O=C(O)CCCN1C(=O)C(=Cc2ccc(-c3cccc(C(F)(F)F)c3)o2)SC1=S` [Compound B91] displayed an IC50 below 10 µM.

Consider `Cc1cc(N(C)C)ccc1-c1ccc(C=C2SC(=S)N(CCCC(=O)O)C2=O)o1` [Compound B92], for which the IC50 is 11 to 40 µM.

The compound `CS(=O)(=O)c1ccc(-c2ccc(C=C3SC(=S)N(CCCC(=O)O)C3=O)o2)cc1` [Compound B93] gave an IC50 of 11 to 40 µM.

On to `CC(C(=O)O)N1C(=O)C(=Cc2ccc(-c3ccccc3Cl)o2)SC1=S` (stereo not shown) [Compound B94], for which the IC50 lay within 11 to 40 µM.

The compound `CC(C(=O)O)N1C(=O)C(=Cc2ccc(-c3cccc(Cl)c3)o2)SC1=S` (stereo not shown) [Compound B95] came in with an IC50 of 11 to 40 µM.

The compound `CC(C(=O)O)N1C(=O)C(=Cc2ccc(-c3ccc(Cl)cc3)o2)SC1=S` (stereo not shown) [Compound B96] had an IC50 below 10 µM.

As to `Cc1ccccc1-c1ccc(C=C2SC(=S)N(C(C)C(=O)O)C2=O)o1` (stereo not shown) [Compound B97], the IC50 was in the range of 11 to 40 µM.

`CC(C(=O)O)N1C(=O)C(=Cc2ccc(-c3ccc(F)cc3)o2)SC1=S` (stereo not shown) [Compound B98] came in with an IC50 of 41 to 80 µM.

In turn, `CC(C(=O)O)N1C(=O)C(=Cc2ccc(-c3ccccc3C(F)(F)F)o2)SC1=S` (stereo not shown) [Compound B99] showed an IC50 of 11 to 40 µM.

Turning to `CC(C(=O)O)N1C(=O)C(=Cc2ccc(-c3cccc(C(F)(F)F)c3)o2)SC1=S` (stereo not shown) [Compound B100], the IC50 was below 10 µM.

`CC(C)C(C(=O)O)N1C(=O)C(=Cc2ccc(-c3ccccc3Cl)o2)SC1=S` (stereo not shown) [Compound B101] displayed an IC50 below 10 µM.

For the compound `CC(C)C(C(=O)O)N1C(=O)C(=Cc2ccc(-c3cccc(Cl)c3)o2)SC1=S` (stereo not shown) [Compound B102], the IC50 fell in the range of 11 to 40 µM.

`CC(C)C(C(=O)O)N1C(=O)C(=Cc2ccc(-c3ccc(Cl)cc3)o2)SC1=S` (stereo not shown) [Compound B103] registered an IC50 below 10 µM.

For the compound `CC(C)C(C(=O)O)N1C(=O)C(=Cc2ccc(-c3ccccc3C(F)(F)F)o2)SC1=S` (stereo not shown) [Compound B104], the IC50 is below 10 µM.

With `CC(C)C(C(=O)O)N1C(=O)C(=Cc2ccc(-c3cccc(C(F)(F)F)c3)o2)SC1=S` (stereo not shown) [Compound B105], the IC50 was in the range of 11 to 40 µM.

Consider `Cc1ccccc1-c1ccc(C=C2SC(=S)N(C(C(=O)O)C(C)C)C2=O)o1` (stereo not shown) [Compound B106], for which the IC50 fell in the range of 11 to 40 µM.

The compound `CC(C)C(C(=O)O)N1C(=O)C(=Cc2ccc(-c3ccc(F)cc3)o2)SC1=S` (stereo not shown) [Compound B107] registered an IC50 of 11 to 40 µM.

For `CC(C)C(C(=O)O)N1C(=O)C(=Cc2ccc(-c3ccc(Cl)cc3Cl)o2)SC1=S` (stereo not shown) [Compound B108], the IC50 was below 10 µM.

With `COc1ccc(-c2ccc(C=C3SC(=S)N(C(C(=O)O)C(C)C)C3=O)o2)cc1Cl` (stereo not shown) [Compound B109], the IC50 is below 10 µM.

`CC(C)C(C(=O)O)N1C(=O)C(=Cc2ccc(-c3ccc(Cl)cc3[N+](=O)[O-])o2)SC1=S` (stereo not shown) [Compound B110]: the IC50 lay in the range of 11 to 40 µM.

On to `CC(C)C(C(=O)O)N1C(=O)C(=Cc2ccc(-c3ccc(Cl)c(Cl)c3)o2)SC1=S` (stereo not shown) [Compound B111], for which the IC50 was below 10 µM.

Turning to `COc1ccc(-c2ccc(C=C3SC(=S)N(C(C)C(=O)O)C3=O)o2)cc1Cl` (stereo not shown) [Compound B113], the IC50 is below 10 µM.

Regarding `CC(C(=O)O)N1C(=O)C(=Cc2ccc(-c3ccc(Cl)cc3[N+](=O)[O-])o2)SC1=S` (stereo not shown) [Compound B114], the IC50 fell in the range of 11 to 40 µM.

`CNS(=O)(=O)c1ccc(-c2ccc(C=C3SC(=S)N(CCCC(=O)O)C3=O)o2)cc1` [Compound B115]: the IC50 lay in the range of 41 to 80 µM.

The compound `O=C(O)C1CCCC(N2C(=O)C(=Cc3ccc(-c4ccccc4Cl)o3)SC2=S)C1` (stereo not shown) [Compound C1, 3-{5-[1-[5-(2-chloro-phenyl)-furan-2-yl]-methylidene]-4-oxo-2-thioxo-thiazolidin-3-yl}-cyclohexanecarboxylic acid] gave an IC50 of 11 to 40 µM.

On to `O=C(O)C1CCCC(N2C(=O)C(=Cc3ccc(-c4ccc(C5CCCCC5)cc4)o3)SC2=S)C1` (stereo not shown) [Compound C2, 3-{5-[1-[5-(4-cyclohexyl-phenyl)-furan-2-yl]-methylidene]-4-oxo-2-thioxo-thiazolidin-3-yl}-cyclohexanecarboxylic acid], for which the IC50 was below 10 µM.

With `CC(C)(C)c1ccc(-c2ccc(C=C3SC(=S)N(C4CCCC(C(=O)O)C4)C3=O)o2)cc1` (stereo not shown) [Compound C3, 3-{5-[1-[5-(4-tert-butyl-phenyl)-furan-2-yl]-methylidene]-4-oxo-2-thioxo-thiazolidin-3-yl}-cyclohexanecarboxylic acid], the IC50 was below 10 µM.

Compound `CC(C)Cc1ccc(-c2ccc(C=C3SC(=S)N(C4CCCC(C(=O)O)C4)C3=O)o2)cc1` (stereo not shown) [Compound C4, 3-{5-[1-[5-(4-isobutyl-phenyl)-furan-2-yl]methylidene]-4-oxo-2-thioxo-thiazolidin-3-yl}-cyclohexanecarboxylic acid] showed an IC50 below 10 µM.

`O=C(O)C1CCCC(N2C(=O)C(=Cc3ccc(-c4cccc(C(F)(F)F)c4)o3)SC2=S)C1` (stereo not shown) [Compound C5, 3-{5-[1-[5-(3-trifluoromethyl-phenyl)-furan-2-yl]-methylidene]-4-oxo-2-thioxo-thiazolidin-3-yl}-cyclohexanecarboxylic acid] came in with an IC50 below 10 µM.

With `O=C(O)C1CCCC(N2C(=O)C(=Cc3ccc(-c4ccc(Cc5ccccc5)cc4)o3)SC2=S)C1` (stereo not shown) [Compound C6, 3-{5-[1-[5-(4-benzyl-phenyl)-furan-2-yl]-methylidene]-4-oxo-2-thioxo-thiazolidin-3-yl}-cyclohexanecarboxylic acid], the IC50 was below 10 µM.

Turning to `O=C(O)C1CCCC(N2C(=O)C(=Cc3ccc(-c4ccc(F)cc4F)o3)SC2=S)C1` (stereo not shown) [Compound C7, 3-{5-[1-[5-(2,4-difluoro-phenyl)-furan-2-yl]-methylidene]-4-oxo-2-thioxo-thiazolidin-3-yl}-cyclohexanecarboxylic acid], the IC50 was below 10 µM.

As to `Cc1ccc(-c2ccc(C=C3SC(=S)N(C4CCCC(C(=O)O)C4)C3=O)o2)c(C)c1` (stereo not shown) [Compound C8, 3-{5-[1-[5-(2,4-dimethyl-phenyl)-furan-2-yl]-methylidene]-4-oxo-2-thioxo-thiazolidin-3-yl}-cyclohexanecarboxylic acid], the IC50 is below 10 µM.

For `COc1ccc(-c2ccc(C=C3SC(=S)N(C4CCCC(C(=O)O)C4)C3=O)o2)c(C)c1` (stereo not shown) [Compound C9, 3-{5-[1-[5-(2-methyl-4-methoxy-phenyl)-furan-2-yl]-methylidene]-4-oxo-2-thioxo-thiazolidin-3-yl}-cyclohexanecarboxylic acid], the IC50 was in the range of 11 to 40 µM.

Regarding `Cc1ccccc1-c1cccc(C=C2SC(=S)N(C3CCCC(C(=O)O)C3)C2=O)n1` (stereo not shown) [Compound C10, 3-[4-Oxo-2-thioxo-5-(6-o-tolyl-pyridin-2-ylmethylene)-thiazolidin-3-yl]-cyclohexanecarboxylic acid], the IC50 was in the range of 41 to 80 µM.
